Measurements taken from patent publication US20260035387A1 (BIOGEN MA INC., priority 2022, published 2026).

System: mHTT protein
Assay: not given
Conditions: HD mouse model; cited from earlier work

**Q.** For `CC1(C)CC(Oc2ccc(-c3ccc(-c4cn[nH]c4)cc3O)nn2)CC(C)(C)N1` [branaplam], which mHTT protein levels is on record?
**A.** Its mHTT protein levels is “lowers mHTT protein levels”.

System: mutant Huntington (HTT) protein
Assay: HTT Mutant HTRF iPSC assay (mHTT protein lowering)
Assay type: cell-based
Conditions: human iPSC derived from a HTT patient with a poly-Q49 mutation

**Q.** With `Cc1cn2cc(NC(=O)c3cc4ccc(N5CCN(C(C)C)CC5)nc4s3)nc(C)c2n1` [Compound 233, N-(2,8-dimethylimidazo[1,2-a]pyrazin-6-yl)-6-(4-isopropylpiperazin-1-yl)thieno[2,3-b]pyridine-2-carboxamide] as the compound, how does the IC50 read?
**A.** The IC50 was less than 100 nM.

**Q.** For `COc1cc2nn(C)cc2cc1NC(=O)c1cc2ccc(N3CCC(N4CCC4)C3)nc2s1` (stereo not drawn) [Compound 234, 6-(3-(azetidin-1-yl)pyrrolidin-1-yl)-N-(6-methoxy-2-methyl-2H-indazol-5-yl)thieno[2,3-b]pyridine-2-carboxamide], which IC50 is on record?
**A.** The IC50 was less than 100 nM.

**Q.** With `COc1c(NC(=O)c2cc3ccc(N4C[C@@H]5CN(C)C[C@@H]54)nc3s2)cc2cn(C)nc2c1F` [Compound 235, N-(7-fluoro-6-methoxy-2-methyl-2H-indazol-5-yl)-6-((1S,5R)-3-methyl-3,6-diazabicyclo[3.2.0]heptan-6-yl)thieno[2,3-b]pyridine-2-carboxamide] as the compound, how does the IC50 read?
**A.** Its IC50 is less than 100 nM.

**Q.** With `COc1cc2nn(C)cc2cc1NC(=O)c1cc2ccc(N3CC4(CCCN4C)C3)nc2s1` [Compound 236, N-(6-methoxy-2-methyl-2H-indazol-5-yl)-6-(5-methyl-2,5-diazaspiro[3.4]octan-2-yl)thieno[2,3-b]pyridine-2-carboxamide] as the compound, how does the IC50 read?
**A.** Its IC50 is less than 100 nM.

**Q.** For `Cc1cn2cc(NC(=O)c3cc4ccc(N5CC6CCNC6C5)nc4s3)cc(F)c2n1` (stereo not drawn) [Compound 237, N-(8-fluoro-2-methylimidazo[1,2-a]pyridin-6-yl)-6-(hexahydropyrrolo[3,4-b]pyrrol-5(1H)-yl)thieno[2,3-b]pyridine-2-carboxamide], which IC50 is on record?
**A.** The IC50 was less than 100 nM.

**Q.** With `CNC1CCN(c2ccc3cc(C(=O)Nc4cc(F)c5nc(C)cn5c4)sc3n2)C1` (stereo not drawn) [Compound 238, N-(8-fluoro-2-methylimidazo[1,2-a]pyridin-6-yl)-6-(3-(methylamino)pyrrolidin-1-yl)thieno[2,3-b]pyridine-2-carboxamide] as the compound, how does the IC50 read?
**A.** Its IC50 is less than 100 nM.

**Q.** For `CCN1CCN(c2ccc3cc(C(=O)Nc4cn5cc(C)nc5c(C)n4)sc3n2)CC1` [Compound 240, N-(2,8-dimethylimidazo[1,2-a]pyrazin-6-yl)-6-(4-ethylpiperazin-1-yl)thieno[2,3-b]pyridine-2-carboxamide], which IC50 is on record?
**A.** Its IC50 is less than 100 nM.

**Q.** Which IC50 does the source give for `Cc1cn2cc(NC(=O)c3cc4ccc(N5CC6CCC(C5)N6C)nc4s3)nc(C)c2n1` [Compound 243, N-(2,8-dimethylimidazo[1,2-a]pyrazin-6-yl)-6-(8-methyl-3,8-diazabicyclo[3.2.1]octan-3-yl)thieno[2,3-b]pyridine-2-carboxamide] here?
**A.** The IC50 was less than 100 nM.

**Q.** With `Cc1cn2cc(NC(=O)c3cc4ccc(N5C[C@H]6CCN[C@H]6C5)nc4s3)cc(F)c2n1` [Compound 245, N-(8-fluoro-2-methylimidazo[1,2-a]pyridin-6-yl)-6-((3aR,6aR)-hexahydropyrrolo[3,4-b]pyrrol-5(1H)-yl)thieno[2,3-b]pyridine-2-carboxamide] as the compound, how does the IC50 read?
**A.** Its IC50 is less than 100 nM.

**Q.** Which IC50 does the source give for `CN1CCC(c2ccc3nc(C(=O)Nc4cc(F)c5nn(C)cc5c4)sc3n2)CC1` [Compound 246, N-(7-fluoro-2-methyl-2H-indazol-5-yl)-5-(1-methylpiperidin-4-yl)thiazolo[5,4-b]pyridine-2-carboxamide] here?
**A.** Its IC50 is 100 to 1000 nM.

**Q.** For `CCN1CCN(c2cnc3cc(C(=O)Nc4cc5cn(C)nc5cc4OC)sc3n2)CC1` [Compound 247, 3-(4-ethylpiperazin-1-yl)-N-(6-methoxy-2-methyl-2H-indazol-5-yl)thieno[2,3-b]pyrazine-6-carboxamide], which IC50 is on record?
**A.** The IC50 was less than 100 nM.

**Q.** With `COc1cc2nn(C)cc2cc1NC(=O)c1cc2ncc(N3CCC4(CN(C)C4)C3)nc2s1` [Compound 248, N-(6-methoxy-2-methyl-2H-indazol-5-yl)-3-(2-methyl-2,6-diazaspiro[3.4]octan-6-yl)thieno[2,3-b]pyrazine-6-carboxamide] as the compound, how does the IC50 read?
**A.** Its IC50 is 100 to 1000 nM.

**Q.** With `COc1c(NC(=O)c2cc3ccc(C4CCN(C)CC4)nc3s2)cc2cn(C)nc2c1F` [Compound 249, N-(7-fluoro-6-methoxy-2-methyl-2H-indazol-5-yl)-6-(1-methylpiperidin-4-yl)thieno[2,3-b]pyridine-2-carboxamide] as the compound, how does the IC50 read?
**A.** The IC50 was less than 100 nM.

**Q.** For `Cc1cn2cc(NC(=O)c3cc4ccc(N5CC[C@@H](N(C)C)C5)nc4s3)nc(C(F)F)c2n1` [Compound 250, (R)-N-(8-(difluoromethyl)-2-methylimidazo[1,2-a]pyrazin-6-yl)-6-(3-(dimethylamino)pyrrolidin-1-yl)thieno[2,3-b]pyridine-2-carboxamide], which IC50 is on record?
**A.** The IC50 was less than 100 nM.

**Q.** For `CCN1CCN(c2ccc3cc(C(=O)Nc4cn5cc(C)nc5c(C(F)F)n4)sc3n2)CC1` [Compound 253, N-(8-(difluoromethyl)-2-methylimidazo[1,2-a]pyrazin-6-yl)-6-(4-ethylpiperazin-1-yl)thieno[2,3-b]pyridine-2-carboxamide], which IC50 is on record?
**A.** The IC50 was less than 100 nM.

**Q.** With `CCOc1cn2nc(C)cc2cc1NC(=O)c1cc2ccc(N3CC4(CCN(C)C4)C3)nc2s1` [Compound 256, N-(6-ethoxy-2-methylpyrazolo[1,5-a]pyridin-5-yl)-6-(6-methyl-2,6-diazaspiro[3.4]octan-2-yl)thieno[2,3-b]pyridine-2-carboxamide] as the compound, how does the IC50 read?
**A.** Its IC50 is less than 100 nM.

**Q.** With `Cc1cn2cc(NC(=O)c3cc4ncc(N5CCC6(CN(C)C6)C5)nc4s3)cc(F)c2n1` [Compound 257, N-(8-fluoro-2-methylimidazo[1,2-a]pyridin-6-yl)-3-(2-methyl-2,6-diazaspiro[3.4]octan-6-yl)thieno[2,3-b]pyrazine-6-carboxamide] as the compound, how does the IC50 read?
**A.** The IC50 was 100 to 1000 nM.

**Q.** For `Cc1cn2cc(NC(=O)c3cc4ncc(N5CC(C)(N)C5)nc4s3)cc(F)c2n1` [Compound 258, 3-(3-amino-3-methylazetidin-1-yl)-N-(8-fluoro-2-methylimidazo[1,2-a]pyridin-6-yl)thieno[2,3-b]pyrazine-6-carboxamide], which IC50 is on record?
**A.** Its IC50 is less than 100 nM.

**Q.** With `CCN1CCN(c2ccc3oc(C(=O)Nc4cc5cc(C)nn5cc4OC)cc3n2)CC1` [Compound 259, 5-(4-ethylpiperazin-1-yl)-N-(6-methoxy-2-methylpyrazolo[1,5-a]pyridin-5-yl)furo[3,2-b]pyridine-2-carboxamide] as the compound, how does the IC50 read?
**A.** The IC50 was 100 to 1000 nM.

**Q.** Which IC50 does the source give for `COc1nc(NC(=O)c2cc3nc(C4CCN(C)CC4)ccc3o2)cn2cc(C)nc12` [Compound 262, N-(8-methoxy-2-methylimidazo[1,2-a]pyrazin-6-yl)-5-(1-methylpiperidin-4-yl)furo[3,2-b]pyridine-2-carboxamide] here?
**A.** The IC50 was 100 to 1000 nM.

**Q.** For `COc1cc2nn(C)cc2cc1NC(=O)c1cc2nc(N3CCN(C)CC3)ccc2o1` [Compound 263, N-(6-methoxy-2-methyl-2H-indazol-5-yl)-5-(4-methylpiperazin-1-yl)furo[3,2-b]pyridine-2-carboxamide], which IC50 is on record?
**A.** Its IC50 is less than 100 nM.

**Q.** For `COc1cc(NC(=O)c2nc3ccc(N4CC5(CCN(C)C5)C4)nc3s2)cn2cc(C)nc12` [Compound 267, N-(8-methoxy-2-methylimidazo[1,2-a]pyridin-6-yl)-5-(6-methyl-2,6-diazaspiro[3.4]octan-2-yl)thiazolo[5,4-b]pyridine-2-carboxamide], which IC50 is on record?
**A.** Its IC50 is less than 100 nM.

**Q.** Which IC50 does the source give for `Cc1cn2cc(NC(=O)c3cc4ncc(N5C[C@@H]6CN(C)C[C@@H]65)nc4s3)cc(F)c2n1` [Compound 268, N-(8-fluoro-2-methyl-imidazo[1,2-a]pyridin-6-yl)-3-[(1S,5R)-3-methyl-3,6-diazabicyclo[3.2.0]heptan-6-yl]thieno[2,3-b]pyrazine-6-carboxamide] here?
**A.** The IC50 was 100 to 1000 nM.

**Q.** For `COc1cc2nn(C)cc2cc1NC(=O)c1cc2nc(C3CCN(C)CC3)ccc2o1` [Compound 269, N-(6-methoxy-2-methyl-2H-indazol-5-yl)-5-(1-methylpiperidin-4-yl)furo[3,2-b]pyridine-2-carboxamide], which IC50 is on record?
**A.** The IC50 was 100 to 1000 nM.

System: mHTT protein
Assay: not given
Conditions: HD patient cells; cited from earlier work

**Q.** Which mHTT protein levels does the source give for `CC1(C)CC(Oc2ccc(-c3ccc(-c4cn[nH]c4)cc3O)nn2)CC(C)(C)N1` [branaplam] here?
**A.** The mHTT protein levels was “lowers mHTT protein levels”.

System: mHTT protein
Assay: not given
Conditions: blood samples from SMA Type I patients dosed orally; cited from earlier work

**Q.** Which mHTT protein levels does the source give for `CC1(C)CC(Oc2ccc(-c3ccc(-c4cn[nH]c4)cc3O)nn2)CC(C)(C)N1` [branaplam] here?
**A.** The mHTT protein levels was “lowers mHTT protein levels”.
